In general, melting point refers to the temperature of the solid-liquid transition. As for `Cc1c(F)c(F)cc2c(=O)c(C(=O)O)cn(-c3ccc(F)c(O)c3)c12`, the melting point was more than 280 °C.

Compound `Cc1cc(C)c(Nc2nc(N(C)C)ncc2S(=O)(=O)c2cccc(OCc3ccccc3)c2)c(C)c1` gave a melting point of 52 to 58 °C.

The compound `Cc1sc2c(c1C(=O)c1ccccc1)CCC2C(=O)O` (stereo unspecified) gave a melting point of 145 to 147 °C.

The compound `CCCCCCCCCCCCOc1cc(O)c(C(=O)c2ccccc2)c(OCCCCCCCCCCCC)c1` yielded a melting point of 37 to 38 °C.

As for `O=[N+]([O-])c1cc(CCl)ccc1Oc1ccc(OCc2ccccc2)cc1`, the melting point was in the range of 106 to 107 °C.

`Cc1noc(-c2cc(-c3ccccc3)c(=O)n3c2-c2sccc2SCC3)n1` had a melting point of 183 to 185 °C.

In turn, `Nc1c(-c2ccc(Cl)cc2Cl)nnn1Cc1ccc(O)cc1` displayed a melting point of 172 to 174 °C.

As for `CN1CCN(C(=O)c2ccc(-c3ccc4nnn(Cc5ccc6ncccc6c5)c4n3)cc2)CC1`, the melting point lay within 156 to 158 °C.

Take `Oc1cccc2c1CC1C(C2)C1(Cl)Cl` (stereo unspecified): the melting point was in the range of 89 to 93 °C.

Consider `O=C(NCCO)c1cccc(-c2ccc3c(c2)N(Cc2cc(Cl)cc(Cl)c2)CC3)c1`, for which the melting point was in the range of 121 to 128 °C.

Compound `Cc1ccc(C(Cn2ccnc2)C(=O)c2ccc(Cl)cc2Cl)cc1` (stereo unspecified) returned a melting point of 92 to 96 °C.

Regarding `CC(C)(C)COc1c(NCCCBr)c(=O)c1=O`, the melting point was 111 to 113 °C.

On to `COCCNC(=O)c1cc2c(ccc3cnn(C[C@H](C)N)c32)o1`, for which the melting point fell in the range of 75 to 76 °C.

Turning to `CC1(c2ccc(F)cc2)CN(Cc2ccc(COc3cccc4c3CN(C3CCC(=O)NC3=O)C4=O)cc2)CCO1` (stereo unspecified), the melting point fell in the range of 118 to 120 °C.

Compound `O=C(NC1CCCCC1)c1cccc(Cn2cnc3ccccc32)c1` came in with a melting point of 132 to 134 °C.

With `CN(C)C=Nc1c(Cl)cc(NCc2ccc(N(C)C)cc2F)cc1Cl`, the melting point fell in the range of 118 to 120 °C.

`O=c1cc(-c2cccc(F)c2)oc2ccc(OCCCCCCN3CCC(O)CC3)cc12` came in with a melting point of 136 to 137 °C.

Compound `COc1ccc(Cn2cnc3c(-c4ccco4)nc(C4CC4)nc32)cc1` displayed a melting point of 115 to 116 °C.

In turn, `[N-]=[N+]=NCC1Cc2cc(I)c3[nH]c(=O)ccc3c2O1` (stereo unspecified) returned a melting point of 175 °C.

`OCc1cc2cnc(Cl)nc2n1C1CCCC1` showed a melting point of 174 to 176 °C.

As to `OC(CCCCCOc1cccc(Cl)c1)c1cccc(OCc2ccc3ccccc3n2)c1` (stereo unspecified), the melting point was in the range of 69.5 to 70.5 °C.

The compound `O=C(CCCCCCCCCCCCCCCO)OCOC(=O)CCCCCCCCCCCCCCCO` had a melting point of 96.2 °C.

`CCCCC(NC(=O)C(CC(C)C)NC(=O)c1cccc2ccccc12)C(=O)CSCc1ccco1` (stereo unspecified) displayed a melting point of 81 to 83 °C.

`COC(=O)C1=C(C)NC(CF)=C(C(=O)OC)C1c1c(F)c(F)c(F)c(F)c1F` (stereo unspecified) showed a melting point of 148 to 150 °C.

`Cc1ccc(NCC2CCN(C3CCCCC3)CC2)c(C(=O)Nc2ccc(Cl)cn2)c1` displayed a melting point of 179 to 182 °C.

On to `Nc1ncc(-c2cnc3[nH]c(=O)n(CC4CCCCC4)c3n2)cn1`, for which the melting point was more than 250 °C.

`COc1ccc2ccc3nc(C(=O)Nc4nnn[nH]4)cn3c2c1` showed a melting point of 298 to 301 °C.

As for `Fc1ccc(/C=C/c2nc(COc3ccc(CCCCn4ccnn4)cc3)co2)cc1`, the melting point was 124 to 125 °C.

For `COc1cccc2c1CCCC2(O)CN` (stereo unspecified), the melting point fell in the range of 129 to 130 °C.

`O=C(c1ccc([N+](=O)[O-])cc1)c1ccc2[nH]c(=O)sc2c1` registered a melting point of 148 to 152 °C.

In turn, `Cc1c(C)c2c(c(C)c1NC(=O)CC(C)(C)C)C(c1ccc(C(C)C)c(O)c1)CO2` (stereo unspecified) yielded a melting point of 220 to 221 °C.

`O=C(NCc1ccccc1)c1ccc2[nH]ccc2c1` returned a melting point of 155 to 160 °C.

For the compound `O=C(NN=Cc1ccc2cc(OC(=O)c3ccc([N+](=O)[O-])o3)ccc2c1)OCc1ccccc1`, the melting point was 109 to 112 °C.

Compound `COc1ccc(C2(C)C(=O)c3c(N4CCN(C)CC4)cc(Cl)cc3N(Cc3ccccc3)C2=O)cc1` (stereo unspecified) had a melting point of 66 to 67 °C.

`CN(Cc1ccccc1)c1ncnc2c(N3CCOCC3)nc(N3CCC(NCc4ccccc4)CC3)nc12` came in with a melting point of 103 to 106 °C.

`CC(O)c1cc(Br)ccc1OCc1ccccc1` (stereo unspecified) showed a melting point of 76.7 °C.

Compound `COc1cccc(CNC(=O)c2nc3scc(NC(=O)Cc4ccc(C(=O)O)cc4)c3c(=O)[nH]2)c1` displayed a melting point of 218 to 219 °C.

As to `CC(=O)Nc1c(C(O)(C(F)(F)F)C(F)(F)F)cc(Cl)c2ccccc12`, the melting point lay within 161 to 162 °C.

In turn, `Nc1ccc(S(=O)(=O)Nc2nc(-c3cccc([N+](=O)[O-])c3)cs2)cc1` came in with a melting point of 191 to 193 °C.

The compound `COc1cc2c(c(OC)c1)C(=O)CCC2` returned a melting point of 58 to 61 °C.

In turn, `C=CCn1c(=O)n(CCC)c(=O)c2[nH]c(C34CC5CC(CC3C5)C4)nc21` displayed a melting point of 196 to 197 °C.

As to `COc1ccc(C=C(C#N)c2ccc(F)cc2)cc1OC1CCCC1`, the melting point was in the range of 139 to 141 °C.

`CC(=O)c1cccc(NC(=O)c2nnnn2Cc2ccccc2)c1O`: the melting point was in the range of 155 to 157 °C.

With `COc1cccc2c1C(=O)c1c(OC)cc(Cc3ccccc3C(O)=S)cc1C2=O`, the melting point lay within 235 to 237 °C.

`CC1c2cccc3c2N(CC3)c2ccccc2N1C(=O)CCBr` (stereo unspecified): the melting point lay in the range of 149 to 151 °C.

In turn, `CC[C@@H](C=O)NC(=O)OC(C)(C)C` displayed a melting point of 39 to 43 °C.

The compound `COc1cccc(CNc2nc(SCc3ccccc3)nc3nc[nH]c23)c1O` gave a melting point of 193 to 194 °C.

Take `CNC(=O)ON(C(=O)NC)C(=O)C(C)(C)C`: the melting point was in the range of 117 to 119 °C.

In the case of `Cc1ccc2c(c1)C=Cc1cc(C)ccc1C2c1cn(-c2ccnc(N3CCC[C@H]3C(=O)O)n2)c(=O)[nH]c1=O`, the melting point was in the range of 200 to 205 °C.

As to `O=c1cc(-c2cc[nH]n2)oc2ccccc12`, the melting point was in the range of 143 to 144 °C.

Take `O=C(CCl)NOC(c1ccccc1)c1ccccc1`: the melting point was 115 to 117 °C.

With `COc1cc(C(C)C(=O)O)ccc1-c1ccc(F)cc1` (stereo unspecified), the melting point lay in the range of 133 to 136 °C.

Turning to `COc1cc(OC)cc(-n2c(-c3ccccc3F)cc(=O)c(C)c2-c2ccc(F)cc2F)c1`, the melting point was in the range of 171 to 173 °C.

As to `O=C1CCN2C(=O)c3cccc(NC(=O)Nc4cc(O)c5ccccc5n4)c3C2C1` (stereo unspecified), the melting point is more than 260 °C.

Take `COc1ccc(NC(=O)c2ccc(F)c(F)c2)cc1NS(=O)(=O)CCl`: the melting point fell in the range of 191 to 193 °C.

`CCNC(=O)[C@@H]1CCCN1C(=O)[C@H](C)NC(=O)OCC`: the melting point is 126 to 128 °C.

The compound `Brc1cnc2c(c1)ncn2-c1cccc(CN2CCOCC2)c1` gave a melting point of 176 to 178 °C.

`CC(C)(C)c1cc(NS(=O)(=O)c2ccc(N3CCNC3=O)cc2)cc(C(C)(C)C)c1` gave a melting point of 276 to 278 °C.

Take `CC(C)(C)c1cc(CN(c2cccnc2)S(=O)(=O)c2cccc([N+](=O)[O-])c2)cc(C(C)(C)C)c1O`: the melting point lay in the range of 99 to 107 °C.

As for `COC(=O)c1nc(-c2ccccc2)n(-c2ccc(Cl)cc2)n1`, the melting point lay within 136 to 137 °C.

For `CC(=O)OCC1OC(n2cc(C3=C(n4ccnc4)C(=O)N(C)C3=O)c3cccnc32)C(OC(C)=O)C(OC(C)=O)C1OC(C)=O` (stereo unspecified), the melting point was in the range of 88 to 90 °C.
